EP0607274B1, “3-(N-ISOPROPYL-N-n-PROPYLAMINO)-5-(N-ISOPROPYL)CARBAMOYLCHROMAN” (priority 1991, dated 1993)

Experiments:
[1] = Oral bioavailability in dogs (plasma AUC method, i.v. versus p.o.); assay type: in vivo; conditions: dog, 10 umol/kg, plasma level measurements, 1 µmol·kg^-1 i.v. and 10 µmol·kg^-1 p.o.
Experimental: Dose-effect studies in rat following subcutaneous versus oral administration further support a high availability of the compound at the receptor after oral administration.
Method: Assessment for oral bioavailability (systemic availability) was based on the plasma area under the curve (AUC) method. An aqueous saline solution of compound of the invention was administered intravenously (i.v.) and orally (p.o.) to the animals and concentrations of the compound in plasma measured at numerous timepoints. The doses administered were 1 µmol·kg^-1 and 10 µmol·kg^-1 for intravenous and oral administration, respectively. AUC was calculated according to the trapezoidal rule. Determination of the test compound in plasma was accomplished by an HPLC method which incorporated electrochemical detection.

5-HT1A receptors = molecular target: T1, 5-HT1A receptors (Rattus norvegicus, UniProt P19327); assay: 5HT1A binding assay (3H-8-OH-DPAT, rat cerebral cortex + hippocampus homogenate); conditions: rat brain, 37°C, 10 minutes
T1 construct: Cerebral cortex + hippocampus from each rat was dissected and homogenized; from tissue; host or cells: rat cerebral cortex + hippocampus homogenate
T1 sequence (P19327 1-422): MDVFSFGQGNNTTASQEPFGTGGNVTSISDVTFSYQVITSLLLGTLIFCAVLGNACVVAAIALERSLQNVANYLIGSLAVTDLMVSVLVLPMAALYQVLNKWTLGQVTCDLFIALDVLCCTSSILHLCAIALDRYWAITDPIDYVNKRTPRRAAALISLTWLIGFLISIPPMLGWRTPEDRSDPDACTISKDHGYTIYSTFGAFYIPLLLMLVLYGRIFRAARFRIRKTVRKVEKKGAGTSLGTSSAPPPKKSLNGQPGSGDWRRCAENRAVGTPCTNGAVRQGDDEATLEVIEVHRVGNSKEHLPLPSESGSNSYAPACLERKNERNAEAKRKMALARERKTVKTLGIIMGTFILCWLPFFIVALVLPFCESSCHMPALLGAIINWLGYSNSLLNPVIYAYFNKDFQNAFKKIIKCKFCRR
Experimental: In order to evaluate the 5-HT-receptor stimulating effect and selectivity, the affinity for various receptors in rat brain were measured in vitro using receptor assay. The stereospecific (R)-enantiomeric compound of the invention (R)-3-(N-isopropyl-N-n-propylamino)-5-(N-isopropyl)carbamoylchroman has Ki 8.6 (nM) and the racemic compound 3-(N-isopropyl-N-n-propylamino)-5-(N-isopropyl)-carbamoylchroman has Ki 24 (nM). The Ki value for the (S)-enantiomer exceeded 1000 nM.
Method: 5HT1A binding assay. Cerebral cortex + hippocampus from each rat was dissected and homogenized in 15 ml ice-cold 50 mM Tris-HCl buffer 4.0 mM CaCl2 and 5.7 mM ascorbic acid, pH 7.5 with an Ultra-Turrax (Janke & Kunkel, Staufen, FRG) for ten s. After centrifugation for 12.5 min at 17,000 rpm (39,800 x g in a Beckman centrifuge with a chilled JA-17 rotor (Beckman, Palo Alto, CA, USA), the pellets were resuspended in the same buffer and homogenization and centrifugation repeated. To each pellet 5 ml ice-cold 0.32 M sucrose were added and homogenized for 5 sec. These samples were kept frozen at -70°C. When used they were diluted with the buffer to 8 mg tissue/ml and homogenized for 10 sec. The tissue homogenates were incubated for ten minutes at 37°C and then supplied with 10 µM pargyline followed by reincubation for 10 minutes.
The binding assay followed that described by Peroutka, J. Neurochem. 47, 529-540, (1986). The incubation mixture (2 ml) contained ^3H-8-OH-DPAT (0.25 to 8 nM), 5 mg/ml tissue homogenate in 50 mM Tris-HCl buffer containing 4.0 mM CaCl2 and 5.7 mM ascorbic acid, pH 7.5. Six different concentrations of ^3H-8-OH-DPAT were analyzed. Binding experiments were started by the addition of tissue homogenate and followed by incubation at 37°C for 10 minutes. […] The filters were washed twice with 5 ml ice-cold 50mM Tris-HCl buffer, pH 7.5, and counted with 5 ml Ready-solv HP (Beckman) in a Beckman LS 3801 scintillation counter. Non-specific binding was measured by the addition of 10 µM 5-HT to the reaction mixture. […]

[2] = Temperature effects: body temperature in rats; assay type: in vivo
Experimental: Method: In each test, thirty rats, weighing approx 250 g, housed in 6 cages of 5 rats, are used. The rats have free access to food and water. Before the start of testing, they are numbered and left undisturbed for at last 1 hour. Before the administration of the compound, the body temperature of each rat is measured using a YSI 2100 tele-thermometer. The thermometer probe is inserted 10 cm into the rectum and left in pace for thirty seconds. The drug is then administered either subcutaneously or orally. In each experiment vehicle and 4 doses of drug are tested. One rat in each cage receives each treatment. The order of treatment is rotated since disturbance to the cage increases the activity of the rats, and thereby their body temperature. Thirty minutes after drug administration the rats' body temperature are measured again. The procedure is repeated 60, 90 and 120 minutes after drug administration. The resultant data on body temperature is subjected to analysis of variance. A significant group by time interaction is taken as an indication of drug effect. To obtain the minimum effective dose, the mean temperature for each of the drug treated groups are compared with that of the vehicle group at each time point using Dunnett's t-test with a level of significance of p<0.02. […]

synthesis rate of 5-HT = assay: Synthesis of 5-HT: accumulation of 5-HTP in rat brain after NSD 1015; assay type: in vivo; conditions: compound given 30 min before NSD 1015
Experimental: Method: The rate of synthesis of 5-HT in the rat streatum was measured as the accumulation of 5-HTP during 30 min after inhibition of aromatic L-amino acid decarboxylase by NSD 1015 (decarboxylase inhibitor, 100 mg/kg i.p.). The test compound was administered 30 min before the NSD 1015. The regions of the brain to be examined were dissected, frozen and stored.
The levels of 5-HTP (5-hydroxytryptophan) was determined by use of high performance liquid chromatography (HPLC) with electrochemical detection according to the method of Magnusson, Nilsson and Westerlund (1980). The mobile phase was 0.1 M phosphate buffer (pH 2.5):methanol:acetonitrile-89:9:2 v/v, containing 1mM octylsulphate. The frozen samples were weighed and homogenized in 0,1 M perchloric acid, containing […] sodium bisulphite, 1 mM ethylene diamine tetraacetic acid (EDTA) and epinine as an internal standard. The supernatants were injected directly onto a Supelcosil C18 (3 µM) column, connected to a detector (ESA Coulochem 5100A), set to 0.05/0.40 V.

SMILES | bioavailability [1] [%] | Ki (5-HT1A receptors) [nM] | body temperature ([2]; 1 mg/kg oral administration) | body temperature ([2]; subcutaneous administration of 0.3 mg/kg) | synthesis rate of 5-HT, measured as 5-HTP level in rat brain (synthesis rate of 5-HT; 0.2 mg/kg oral administration) | synthesis rate of 5-HT, measured as 5-HTP level in rat brain (synthesis rate of 5-HT; 0.1trig/kg subcutaneous administration)
CCCN(C(C)C)C1COc2cccc(C(=O)NC(C)C)c2C1 (racemic) [racemate, 3-(N-Isopropyl-N-n-propylamino)-5-(N-isopropyl)carbamoyl chroman] | 21 | 24 |  |  |  | 
CCCN(C(C)C)[C@@H]1COc2cccc(C(=O)NC(C)C)c2C1 [(S)-enantiomer, (S)-enantiomer of 3-(N-isopropyl-N-n-propylamino)-5-(N-isopropyl)carbamoylchroman] |  | > 1000 |  |  |  | 
CCCN(C(C)C)[C@H]1COc2cccc(C(=O)NC(C)C)c2C1 [(R)-enantiomer, (R)-3-(N-Isopropyl-N-n-propylamino)-5-(N-isopropyl)carbamoylchroman] | 17 | 8.6 | significant temperature decrease | significant temperature decrease | significant decrease | significant decrease
